A word on the ED50: it is the dose at which the effect has come halfway, by size or by number of responders.

17 molecules from US4285956A, “Xanthene and thioxanthene derivatives, compositions thereof and treatment therewith” (priority 1978, dated 1981) can be followed below.

Data set [1] can be described thus: Methylphenidate antagonism (mice biting corrugated paper). Type of data set: in vivo. Conditions: Mus musculus, ip. On the procedure:
Methylphenidate antagonism (ED50 mg/kg i.p.)
Perspex observation cages without bottom and lid, consisting of 5 sections each measuring 12×25×30 cm. White corrugated paper. Mice, male, 18-25 g.
The test substance is given i.p. in the doses 0, 1/8, 1/32 and 1/128 of the determined "i.p. LD50". 3×2 mice are used for each dose level. Two or 24 hours after injection of test substance, methylphenidate, 60 mg/kg, is injected s.c. After administration of methylphenidate the mice are placed in the observation cages, 2 in each cage, where they remain for exactly 1 hour. The cages are placed on corrugated paper, the corrugations facing upwards. It is examined whether the mice have been biting the corrugated paper or not. […] If one or more of the control pairs have not been biting, the test has to be repeated on a new set of mice.
The result is stated in fractions: 0/3, 1/3, 2/3 and 3/3 where 0, 1, 2 and 3 are the number of pairs which have not been biting on receipt of the dose in question.
The results are calculated as the dose (ED50), which causes antagonism in 50% of the test animals.

The nature of data set [2]: Amphetamine antagonism (stereotypy in rats). Type of data set: in vivo. Conditions: Rattus norvegicus, ip, 24 h, read-out: Amphetamine antagonism ED50.
The nature of data set [3]: Catalepsy wire mesh, rat, max. In kind it is in vivo, rats. Conditions: for ED50: Rattus norvegicus, sc, rats, s.c., strongest effect within first 6 hours, read-out: Catalepsy wire mesh, rat, max. ED50; for Cataleptic activity: in words. On the procedure: Catalepsy wire mesh, rat, max. (ED50 mg/kg s.c.)
A vertical wire netting (50 cm×49 cm). The meshes (openings) of the netting are square (1 cm×1 cm). The wire diameter is 2 mm. Stop watch. Rats, male, 180-200 g.
The animals are labeled and used in groups of five. The test substance is injected subcutaneously (s.c.) (5 ml/kg) at 4 dose levels selected from the fixed dose scale.
The animals are placed in the middle of the vertical wire netting 60, 120, 180, 240, 300 and 360 minutes after injection of the test compound. The animals are considered cataleptic when they remain immobile during a period of 15 seconds. This cataleptic reaction is designated +. If the rats are "atonic" and passively slide down the wire mesh they are considered not cataleptic. If the animals climb up and down the wire mesh they are nor cataleptic. In both situations the designation - is used.

The nature of data set [4]: Neuroleptic effect: duration and strength (remarks of Table 2). Type of data set: in vivo. Conditions: in words; for Duration (remarks, words): duration of neuroleptic effect; for Strength of effect (remarks, words): strength of neuroleptic effect. From the text:
The pharmacological testing of the novel xanthones and thioxanthenes of Formula I consisted of standard and reliable tests. […]

Setting [5] is: mice, i.p., methylphenidate 60 mg/kg s.c. 2 h after test substance, read-out: Methylphenidate antagonism ED50, 2 h.
The mark [6] stands for this setting: mice, i.p., methylphenidate 60 mg/kg s.c. 24 h after test substance, read-out: Methylphenidate antagonism ED50, 24 h.
Where [7] appears, read: 2 h, read-out: Methylphenidate antagonism ED50, 2 h.

Entries after “also recorded” stand apart in the source; their conditions may differ. Bounds are passed on as bounds.

For `O=C1OCCN1CCN1CCC(=C2c3ccc(F)cc3Sc3ccc(Cl)cc32)CC1` [Lu 14-117, 1-(2-(2-Oxazolidinon-3-yl)ethyl)-4-(2-chloro-6-fluoro-9-thioxanthenylidene)piperidine], the ED50 in data set [1] (setting [5]) amounted to 0.21 mg/kg; in data set [1] (setting [6]), 29 mg/kg; in data set [2], 0.34 mg/kg; in data set [3] it was 1 mg/kg. In addition, the “Duration (remarks, words)” value in data set [4] is listed as “short acting”. Besides, the “Strength of effect (remarks, words)” value in data set [4] is recorded as “strong”.

Consider `Cc1ccc2c(c1)C(=C1CCN(CCN3CCOC3=O)CC1)c1ccc(F)cc1S2` [Lu 14-070, 1-(2-(2-Oxazolidinon-3-yl)ethyl)-4-(2-methyl-6-fluoro-9-thioxanthenylidene)-piperidine], for which the ED50 in data set [1] (setting [5]) is 0.32 mg/kg; in data set [1] (setting [6]) it was > 40 mg/kg; in data set [2], 1.3 mg/kg; in data set [3], 1.8 mg/kg. Further, in data set [4], the “Duration (remarks, words)” value is listed as “short acting”. The “Strength of effect (remarks, words)” value in data set [4] is “moderately strong”.

Turning to `O=C1NCCN1CCN1CCC(=C2c3ccc(F)cc3Sc3ccc(C(F)(F)F)cc32)CC1` [Lu 16-104], the ED50 came to 0.06 mg/kg in data set [1] (setting [5]), 1.5 mg/kg in data set [1] (setting [6]), 0.15 mg/kg in data set [2] and 0.11 mg/kg in data set [3]. In addition, the “Duration (remarks, words)” value in data set [4] is recorded as “relatively short acting”. Further, the “Strength of effect (remarks, words)” value in data set [4] was “strong”.

Regarding `OCCN1CCN(CCC=C2c3ccccc3Sc3ccc(Cl)cc32)CC1` [clopenthixol, reference compound], the ED50 in data set [1] (setting [5]) was 1.2 mg/kg; in data set [2] it was 0.77 mg/kg; in data set [3], 0.95 mg/kg. For the same molecule, in data set [4], the “Duration (remarks, words)” value is “short acting”. Further, in data set [4], the “Strength of effect (remarks, words)” value is “moderately strong”.

`CN(C)CCCN1c2ccccc2Sc2ccc(Cl)cc21` [chlorpromazine, reference compound]: the ED50 in data set [1] (setting [7]) turned out to be 4 mg/kg; in data set [1] (24 h, read-out: Methylphenidate antagonism ED50, 24 h), 20 mg/kg; in data set [2] it was 7.1 mg/kg; in data set [3] it was 5.6 mg/kg. For the same molecule, the “Duration (remarks, words)” value in data set [4] was “short acting”. The “Strength of effect (remarks, words)” value in data set [4] is given as “moderatley strong”.

Regarding `O=C1NCCN1CCN1CCC(=C2c3ccccc3Sc3ccc(Cl)cc32)CC1` [Lu 16-105], the ED50 is 0.16 mg/kg in data set [1] (setting [5]), 28 mg/kg in data set [1] (setting [6]), 1.2 mg/kg in data set [2] and 0.38 mg/kg in data set [3]. In addition, the “Duration (remarks, words)” value in data set [4] is given as “short acting”. For the same molecule, the “Strength of effect (remarks, words)” value in data set [4] is given as “strong”.

With `CN1CCN(C2=Nc3cc(Cl)ccc3Nc3ccccc32)CC1` [clozapine, reference compound], the ED50 in data set [1] (setting [7]) was > 160 mg/kg; in data set [2], > 40 mg/kg; in data set [3] it was 85 mg/kg. Moreover, the “Duration (remarks, words)” value in data set [4] is on record as “short acting”. In addition, the “Strength of effect (remarks, words)” value in data set [4] was “weak”.

Take `O[C@H]1CCC[C@H](CN2CCC(=C3c4ccc(F)cc4Sc4ccc(C(F)(F)F)cc43)CC2)C1` (relative stereo) [Lu 15-030, 1-(trans-3-hydroxycyclohexylmethyl)-4-(2-trifluoromethyl-6-fluoro-9-thioxanthenylidene)-piperidine]: the ED50 is 0.28 mg/kg in data set [1] (setting [5]), 0.05 mg/kg in data set [1] (setting [6]), 0.88 mg/kg in data set [2] and 0.39 mg/kg in data set [3]. Besides, the “Cataleptic activity” value in data set [3] is “have a cataleptic activity”. Moreover, the “Duration (remarks, words)” value in data set [4] is reported as “long acting”. In addition, in data set [4], the “Strength of effect (remarks, words)” value was “very strong”.

Turning to `O[C@@H]1CC[C@H](CN2CCC(=C3c4ccc(F)cc4Sc4ccc(C(F)(F)F)cc43)CC2)C[C@H]1O` (relative stereo) [Lu 15-052, 1-(3-trans-4-cis-dihydroxycyclohexylmethyl)-4-(2-trifluoromethyl-6-fluoro-9-thioxanthenylidene)-piperidine], the ED50 in data set [1] (setting [5]) was found to be 0.32 mg/kg; in data set [1] (setting [6]), 0.06 mg/kg; in data set [2], 0.9 mg/kg; in data set [3], 0.026 mg/kg. In addition, in data set [3], the “Cataleptic activity” value was “have a cataleptic activity”. Also, in data set [4], the “Duration (remarks, words)” value is recorded as “long acting”. In addition, in data set [4], the “Strength of effect (remarks, words)” value is recorded as “strong; also recorded: very strong”.

On to `CSc1ccc2c(c1)C(=C1CCN(C[C@H]3CC[C@H](O)CC3)CC1)c1ccc(F)cc1O2` [Lu 15-119, 1-(Trans-4-hydroxycyclohexylmethyl)-4-(2-methylthio-6-fluoro-9-xanthenylidene)piperidine], for which the ED50 was found to be 0.09 mg/kg in data set [1] (setting [5]), 0.11 mg/kg in data set [1] (setting [6]), 0.56 mg/kg in data set [2] and 0.08 mg/kg in data set [3]. Moreover, the “Cataleptic activity” value in data set [3] was “have a cataleptic activity”. For the same molecule, the “Duration (remarks, words)” value in data set [4] is on record as “long acting”. Also, the “Strength of effect (remarks, words)” value in data set [4] was “very strong”.

In the case of `CSc1ccc2c(c1)C(=C1CCN(C[C@H]3CC[C@H](O)CC3)CC1)c1ccc(F)cc1S2` [Lu 14-116, 1-(trans-4-hydroxycyclohexylmethyl)-4-(2-methylthio-6-fluoro-9-thioxanthenylidene)-piperidine], the ED50 was 0.44 mg/kg in data set [1] (setting [5]), 0.38 mg/kg in data set [1] (setting [6]), 0.28 mg/kg in data set [2] and 0.58 mg/kg in data set [3]. For the same molecule, in data set [4], the “Duration (remarks, words)” value is given as “long acting”. Further, the “Strength of effect (remarks, words)” value in data set [4] is reported as “strong”.

Take `O=C(CCCN1CCC(O)(c2ccc(Cl)cc2)CC1)c1ccc(F)cc1` [haloperidol, reference compound]: the ED50 amounted to 0.06 mg/kg in data set [1] (setting [7]), 0.14 mg/kg in data set [2] and 0.21 mg/kg in data set [3]. The “Duration (remarks, words)” value in data set [4] is “short acting”. Also, in data set [4], the “Strength of effect (remarks, words)” value is on record as “very strong”.

In the case of `Fc1ccc2c(c1)Sc1ccc(C(F)(F)F)cc1C2=C1CCN(CC2CCOCO2)CC1` (stereo not drawn) [Lu 14-130, 1-(1,3-Dioxan-4-ylmethyl)-4-(2-trifluoromethyl-6-fluoro-9-thioxanthenylidene)piperidine], the ED50 amounted to 0.77 mg/kg in data set [1] (setting [5]), 0.7 mg/kg in data set [1] (setting [6]), 0.62 mg/kg in data set [2] and 2.8 mg/kg in data set [3]. In data set [4], the “Duration (remarks, words)” value is reported as “long acting”. The “Strength of effect (remarks, words)” value in data set [4] is listed as “moderately strong”.

Turning to `O[C@H]1CC[C@H](CN2CCC(=C3c4ccccc4Sc4ccc(Cl)cc43)CC2)CC1` [Lu 14-047, 1-(trans-4-hydroxycyclohexylmethyl)-4-(2-chloro-9-thioxanthenylidene)-piperidine], the ED50 in data set [1] (setting [5]) was 0.59 mg/kg; in data set [1] (setting [6]) it was > 20 mg/kg; in data set [2], 0.32 mg/kg; in data set [3], 3.5 mg/kg. Besides, the “Duration (remarks, words)” value in data set [4] is “short acting”. Further, the “Strength of effect (remarks, words)” value in data set [4] is reported as “strong”.

As for `Cc1ccc2c(c1)Sc1ccc(C(F)(F)F)cc1C2=C1CCN(C[C@H]2CC[C@H](O)CC2)CC1` [Lu 16-014, 1-(trans-4-hydroxycyclohexylmethyl)-4-(2-trifluoromethyl-6-methyl-9-thioxanthenylidene)-piperidine], the ED50 in data set [1] (setting [5]) is 0.31 mg/kg; in data set [1] (setting [6]), 1.9 mg/kg; in data set [2] it was 1 mg/kg; in data set [3] it was 0.97 mg/kg. Besides, the “Duration (remarks, words)” value in data set [4] is reported as “long acting”. For the same molecule, the “Strength of effect (remarks, words)” value in data set [4] is reported as “moderately strong”.

Turning to `CSc1ccc2c(c1)C(=C1CCN(C[C@H]3CC[C@H](O)CC3)CC1)c1ccccc1S2` [Lu 15-019, 1-(trans-4-hydroxycyclohexylmethyl)-4-(2-methylthio-9-thioxanthenylidene)-piperidine], the ED50 in data set [1] (setting [5]) is 0.77 mg/kg; in data set [1] (setting [6]), > 40 mg/kg; in data set [2] it was 0.59 mg/kg; in data set [3], 0.6 mg/kg. Besides, in data set [4], the “Duration (remarks, words)” value was “short acting”. For the same molecule, the “Strength of effect (remarks, words)” value in data set [4] was “moderately strong”.

As for `COc1ccc2c(c1)C(=C1CCN(C[C@H]3CC[C@H](O)CC3)CC1)c1ccc(F)cc1S2` [Lu 16-052, 1-(trans-4-hydroxycyclohexylmethyl)-4-(2-methoxy-6-fluoro-9-thioxanthenylidene)-piperidine], the ED50 in data set [1] (setting [5]) was determined as 0.31 mg/kg; in data set [1] (setting [6]) it was 29 mg/kg; in data set [2], 0.56 mg/kg; in data set [3], 0.23 mg/kg. For the same molecule, in data set [4], the “Duration (remarks, words)” value is reported as “short acting”. Besides, the “Strength of effect (remarks, words)” value in data set [4] is reported as “moderately strong”.
